The results in this text go back to patent US8450317B2, “CXCR3 receptor antagonists” (Boehringer Ingelheim International GmbH, priority 2009, dated 2013).

The target of the assay is CXCR3 (Macaca fascicularis, UniProt A0A2K5UV19). Put plainly: functional cellular assay measuring calcium flux in CXCR3 transfected cells (block of CXCR3/IP-10 interaction). It is filed as cell-based, Cyno. Particulars: IP-10 induced intracellular calcium flux; Cyno-CHO cells stably expressing recombinant CXCR3 and G-alpha-16; IP-10 at EC80; read-out: IC50. As for the experimental part: Compounds are assessed for the ability to block the interaction of CXCR3 and IP-10 in a functional cellular assay measuring calcium flux in CXCR3 transfected cells.
CXCR3, sequence (A0A2K5UV19 entry or part of it): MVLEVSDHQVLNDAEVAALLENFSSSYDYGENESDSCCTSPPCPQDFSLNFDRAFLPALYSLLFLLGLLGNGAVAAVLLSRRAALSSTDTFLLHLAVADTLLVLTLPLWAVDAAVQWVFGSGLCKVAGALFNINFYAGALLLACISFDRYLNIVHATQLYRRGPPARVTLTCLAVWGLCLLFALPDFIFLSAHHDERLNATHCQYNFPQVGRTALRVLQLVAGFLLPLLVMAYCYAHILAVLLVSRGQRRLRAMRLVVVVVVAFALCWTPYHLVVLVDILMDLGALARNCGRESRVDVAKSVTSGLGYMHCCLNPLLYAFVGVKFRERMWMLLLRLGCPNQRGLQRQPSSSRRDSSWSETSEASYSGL
Cyno-CHO cells, stably expressing recombinant CXCR3 and G-alpha-16 are grown in F12 medium (Mediatech #45000-360) supplemented with 10% (V/V) FBS (Mediatech #35-01500), 1% Geneticin (Invitrogen #10131-027) and 0.2% Zeocin (Invitrogen #R250-05). The cells are spun down and re-suspended in growth media to a concentration of […]. 25 microL of cell suspension is added to each well of a BD-384-well TC treated plate, providing 12,000 cells/well. The plate is incubated at 37° C./5% CO2 overnight. On the day of the assay, the plates are removed, the media is flicked out and 25 microL of Ca-4 dye in assay buffer (HBSS, 10 mM HEPES ph 7.4), containing 2 mM probenacid is added to each well. The cell assay plates are then incubated at 37° C./5% CO2 for one hour.
Test compounds are dissolved in DMSO and diluted to 1.045 mM in DMSO. Just prior to assay, 2.75 microL of appropriately diluted test compound are added to each well of a 384 well plate containing 45 microL of HBSS buffer. After mixing, 5 microL of diluted compound are added to each well of the cell assay plate for a final assay concentration of 10 microM. The plate is incubated at room temperature for 15 min. 10 microL of IP-10 stock solution in HBSS (4× EC80 concentration) are added to each well of the cell assay plate except those cells reserved as blank wells containing buffer only. Intracellular calcium flux is recorded on the HAMAMTSU FDSS6000, using excitation at 480 nm and emission at 540 nm. Data are analyzed using Activity Base software.
In general, the preferred potency range (IC50) of compounds in the above assay is between 1 nM to 3 μM, and the most preferred potency range is 1 nM to 200 nM.

In the case of `Cc1cc(C)n(CC(=O)N2CCN(c3ccccc3-c3cnc(N4CC(F)(F)C4)nc3)CC2)n1` [1-(4-{2-[2-(3,3-Difluoro-azetidin-1-yl)-pyrimidin-5-yl]-phenyl}-piperazin-1-yl)-2-(3,5-dimethyl-pyrazol-1-yl)-ethanone], the IC50 was 7 nM.

As for `COc1ncc(-c2cc(F)ccc2N2CCN(C(=O)Cn3c(=O)[nH]c4ccccc43)CC2)cn1` [1-(2-{4-[4-fluoro-2-(2-methoxypyrimidin-5-yl)phenyl]piperazin-1-yl}-2-oxoethyl)-1,3-dihydro-2H-benzimidazol-2-one], the IC50 was found to be 13 nM.

As to `CS(=O)(=O)c1ncc(-c2cc(F)ccc2N2CCN(C(=O)Cn3ccc4cccnc43)CC2)cn1` [1-(4-{4-fluoro-2-[2-(methylsulfonyl)pyrimidin-5-yl]phenyl}piperazin-1-yl)-2-(1H-pyrrolo[2,3-b]pyridin-1-yl)ethanone], the IC50 is 67 nM.

For the compound `Cc1cc(C)n(CC(=O)N2CCN(c3ccccc3-c3cnc(N(C)C)nc3)CC2)n1` [1-{4-[2-(2-Dimethylamino-pyrimidin-5-yl)-phenyl]-piperazin-1-yl}-2-(3,5-dimethyl-pyrazol-1-yl)-ethanone], the IC50 stood at 7 nM.

As to `O=C(Cn1ccc2cccnc21)N1CCN(c2ccccc2-c2cnc(N3CCCCC3)nc2)CC1` [1-{4-[2-(2-Piperidin-1-yl-pyrimidin-5-yl)-phenyl]-piperazin-1-yl}-2-pyrrolo[2,3-b]pyridin-1-yl-ethanone], the IC50 worked out at 11 nM.

With `Cc1cc(C)n(CC(=O)N2CCN(c3ccc(F)cc3C(=O)Nc3nc4c(s3)CN(C)CC4)C[C@@H]2C)n1` [2-{(3S)-4-[(3,5-dimethyl-1H-pyrazol-1-yl)acetyl]-3-methylpiperazin-1-yl}-5-fluoro-N-(5-methyl-4,5,6,7-tetrahydro[1,3]thiazolo[5,4-c]pyridin-2-yl)benzamide], the IC50 was 12 nM.

Consider `Cc1cc(C)n(CC(=O)N2CCN(c3ccccc3-c3cnc(N4CCC(N(C)C)CC4)nc3)CC2)n1` [1-(4-{2-[2-(4-Dimethylamino-piperidin-1-yl)-pyrimidin-5-yl]-phenyl}-piperazin-1-yl)-2-(3,5-dimethyl-pyrazol-1-yl)-ethanone], for which the IC50 was determined as 31 nM.

As for `CS(=O)(=O)C1CCN(c2ncc(-c3cc(F)ccc3N3CCN(C(=O)CN4CCCCC4=O)CC3)cn2)CC1` [1-{2-[4-(4-fluoro-2-{2-[4-(methylsulfonyl)piperidin-1-yl]pyrimidin-5-yl}phenyl)piperazin-1-yl]-2-oxoethyl}piperidin-2-one], the IC50 stood at 15 nM.

For `C[C@H]1CN(c2ccc(F)cc2C(=O)Nc2nc3c(s2)CN(C)CC3)CCN1C(=O)CN1Cc2ccccc2C1=O` [5-fluoro-2-{(3S)-3-methyl-4-[(1-oxo-1,3-dihydro-2H-isoindol-2-yl)acetyl]piperazin-1-yl}-N-(5-methyl-4,5,6,7-tetrahydro[1,3]thiazolo[5,4-c]pyridin-2-yl)benzamide], the IC50 worked out at 15 nM.

For `O=C(Cn1ccc2cccnc21)N1CCN(c2ccccc2-c2ccnc(N3CCOCC3)c2)CC1` [1-{4-[2-(2-Morpholin-4-yl-pyridin-4-yl)-phenyl]-piperazin-1-yl}-2-pyrrolo[2,3-b]pyridin-1-yl-ethanone], the IC50 was 16 nM.

Regarding `CNc1ncc(-c2ccccc2N2CCN(C(=O)Cn3nc(C)cc3C)CC2)cn1` [2-(3,5-Dimethyl-pyrazol-1-yl)-1-{4-[2-(2-methylamino-pyrimidin-5-yl)-phenyl]-piperazin-1-yl}-ethanone], the IC50 came out at 34 nM.

For the compound `Cc1cc(C)n(CC(=O)N2CCN(c3ccccc3-c3cnc(N4CCC(S(C)(=O)=O)CC4)nc3)CC2)n1` [2-(3,5-Dimethyl-pyrazol-1-yl)-1-(4-{2-[2-(4-methanesulfonyl-piperidin-1-yl)-pyrimidin-5-yl]-phenyl}-piperazin-1-yl)-ethanone], the IC50 was determined as 6 nM.

As to `COc1ncc(-c2ccccc2N2CCN(C(=O)Cn3ccc4cc(F)cnc43)CC2)cn1` [2-(5-Fluoro-pyrrolo[2,3-b]pyridin-1-yl)-1-{4-[2-(2-methoxy-pyrimidin-5-yl)-phenyl]-piperazin-1-yl}-ethanone], the IC50 amounted to 8 nM.

Consider `CS(=O)(=O)c1ncc(-c2cc(Cl)ccc2N2CCN(C(=O)Cn3ccc4cccnc43)CC2)cn1` [1-{4-[4-Chloro-2-(2-methanesulfonyl-pyrimidin-5-yl)-phenyl]-piperazin-1-yl}-2-pyrrolo[2,3-b]pyridin-1-yl-ethanone], for which the half-maximal inhibitory concentration (IC50) stood at 24 nM.

Regarding `COc1cc(NC(=O)c2cc(F)ccc2N2CCN(C(=O)CN3Cc4ccccc4C3=O)[C@H](C)C2)ccn1` [5-fluoro-N-(2-methoxypyridin-4-yl)-2-{(3R)-3-methyl-4-[(1-oxo-1,3-dihydro-2H-isoindol-2-yl)acetyl]piperazin-1-yl}benzamide], the IC50 came to 7 nM.

On to `CS(=O)(=O)c1ncc(-c2cc(F)ccc2N2CCN(C(=O)Cn3cnc4cccnc43)CC2)cn1` [1-(4-{4-fluoro-2-[2-(methylsulfonyl)pyrimidin-5-yl]phenyl}piperazin-1-yl)-2-(3H-imidazo[4,5-b]pyridin-3-yl)ethanone], for which the IC50 amounted to 488 nM.

In the case of `N#Cc1ccc(-c2ccccc2N2CCN(C(=O)CNc3nccs3)CC2)cn1` [5-(2-{4-[2-(Thiazol-2-ylamino)-acetyl]-piperazin-1-yl}-phenyl)-pyridine-2-carbonitrile], the IC50 was 47 nM.

In the case of `CC1CN(c2ccccc2-c2cnc(N3CCC(S(C)(=O)=O)CC3)nc2)CCN1C(=O)Cn1ccc2cccnc21` (centres unmarked) [1-[2-methyl-4-(2-{2-[4-(methylsulfonyl)piperidin-1-yl]pyrimidin-5-yl}phenyl)piperazin-1-yl]-2-(1H-pyrrolo[2,3-b]pyridin-1-yl)ethanone], the half-inhibitory concentration (IC50) was 9 nM.

For the compound `CC1CN(c2ccc(F)cc2-c2cnc(N3CCC(S(C)(=O)=O)CC3)nc2)CCN1C(=O)CN1CCCCC1=O` (centres unmarked) [1-{2-[4-(4-fluoro-2-{2-[4-(methylsulfonyl)piperidin-1-yl]pyrimidin-5-yl}phenyl)-2-methylpiperazin-1-yl]-2-oxoethyl}piperidin-2-one], the IC50 was 14 nM.

Consider `Cc1ocnc1C(=O)N(C)CC(=O)N1CCN(c2ccc(F)cc2C(=O)Nc2nc3c(s2)CN(C)CC3)C[C@@H]1C` [N-{2-[(2S)-4-{4-fluoro-2-[(5-methyl-4,5,6,7-tetrahydro[1,3]thiazolo[5,4-c]pyridin-2-yl)carbamoyl]phenyl}-2-methylpiperazin-1-yl]-2-oxoethyl}-N,5-dimethyl-1,3-oxazole-4-carboxamide], for which the IC50 worked out at 21 nM.

On to `CS(=O)(=O)C1CCN(c2ncc(-c3cc(F)ccc3N3CCN(C(=O)CN4Cc5ccccc5C4=O)CC3)cn2)CC1` [2-{2-[4-(4-fluoro-2-{2-[4-(methylsulfonyl)piperidin-1-yl]pyrimidin-5-yl}phenyl)piperazin-1-yl]-2-oxoethyl}-2,3-dihydro-1H-isoindol-1-one], for which the IC50 turned out to be 9 nM.

In the case of `CNc1ncc(-c2cc(C#N)ccc2N2CCN(C(=O)Cn3ccc4cccnc43)CC2)cn1` [3-(2-Methylamino-pyrimidin-5-yl)-4-[4-(2-pyrrolo[2,3-b]pyridin-1-yl-acetyl)-piperazin-1-yl]-benzonitrile], the IC50 amounted to 8 nM.

As for `COc1cc(NC(=O)c2cc(F)ccc2N2CCN(C(=O)CN3CCCCC3=O)[C@H](C)C2)ccn1` [5-fluoro-N-(2-methoxypyridin-4-yl)-2-{(3R)-3-methyl-4-[(2-oxopiperidin-1-yl)acetyl]piperazin-1-yl}benzamide], the IC50 came out at 10 nM.
